Measurements taken from US20100311729A1, “Substituted imidazopyridazines and pyrrolopyrimidines as lipid kinase inhibitors” (priority 2007, published 2010).

What was measured:
Format in all cases: biochemical
[1] = molecular target: T1, PI3K alfa (Homo sapiens, UniProt P42336); experiment: PI3 kinase assay (Kinase-Glo luminescence), PI3K alfa; conditions: Enzymatic Data; read-out: PI3K alfa IC50 [umol]
T1 construct: for the p110-a subunit (with a deletion of the first 20 amino acids); His tag (C); made in house; host or cells: baculovirus; Tn5 (Trichoplusia ni) or TiniPro insect cells
T1 sequence (P42336 with tags, fused parts or gaps limits assumed): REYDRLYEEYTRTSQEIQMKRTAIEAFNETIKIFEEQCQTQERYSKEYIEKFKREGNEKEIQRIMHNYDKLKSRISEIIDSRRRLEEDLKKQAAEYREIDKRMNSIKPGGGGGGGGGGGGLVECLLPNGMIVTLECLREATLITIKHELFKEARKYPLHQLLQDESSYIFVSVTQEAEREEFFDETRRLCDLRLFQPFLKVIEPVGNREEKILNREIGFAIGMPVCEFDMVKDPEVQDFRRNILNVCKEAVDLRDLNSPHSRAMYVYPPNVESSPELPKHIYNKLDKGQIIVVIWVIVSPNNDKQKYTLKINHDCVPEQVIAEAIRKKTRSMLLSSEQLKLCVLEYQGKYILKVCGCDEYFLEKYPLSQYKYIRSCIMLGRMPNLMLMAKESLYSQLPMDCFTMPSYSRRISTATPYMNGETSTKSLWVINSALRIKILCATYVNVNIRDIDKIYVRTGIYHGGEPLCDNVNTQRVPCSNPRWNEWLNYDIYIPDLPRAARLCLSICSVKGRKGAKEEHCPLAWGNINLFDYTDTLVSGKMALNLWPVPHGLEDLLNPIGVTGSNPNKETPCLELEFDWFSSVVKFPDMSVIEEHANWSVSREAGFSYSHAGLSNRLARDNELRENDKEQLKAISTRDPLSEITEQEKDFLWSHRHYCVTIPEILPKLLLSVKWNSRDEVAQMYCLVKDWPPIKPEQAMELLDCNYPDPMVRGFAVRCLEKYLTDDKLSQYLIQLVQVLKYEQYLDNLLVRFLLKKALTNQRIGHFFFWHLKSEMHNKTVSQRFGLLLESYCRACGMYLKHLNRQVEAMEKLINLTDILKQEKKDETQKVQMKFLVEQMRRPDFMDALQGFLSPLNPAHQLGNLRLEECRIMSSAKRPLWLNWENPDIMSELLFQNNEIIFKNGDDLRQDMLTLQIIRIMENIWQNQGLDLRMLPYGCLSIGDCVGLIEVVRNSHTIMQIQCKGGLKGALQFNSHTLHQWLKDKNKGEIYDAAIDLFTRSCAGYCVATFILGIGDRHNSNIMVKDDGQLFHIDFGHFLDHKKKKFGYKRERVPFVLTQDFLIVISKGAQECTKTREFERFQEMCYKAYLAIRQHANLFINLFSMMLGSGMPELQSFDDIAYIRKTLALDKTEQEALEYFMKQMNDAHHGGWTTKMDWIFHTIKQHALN
Summary of the method: (§1)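 Recombinant PI3K constructs (alfa 10 nM, delta 10 nM, gamma 150 nM) with 1 μM ATP and 10 μg/mL phosphatidylinositol in Tris pH 7.5, MgCl2, NaCl, CHAPS, DTT; 60 min (alfa, delta) or 120 min (gamma) at room temperature. ATP depletion read by Kinase-Glo luminescence; IC50 from 4-parameter logistic fit over 8 concentrations.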

[2] = molecular target: T2, PI3K gamma (Homo sapiens, UniProt P48736); experiment: PI3 kinase assay (Kinase-Glo luminescence), PI3K gamma; conditions: Enzymatic Data; read-out: PI3K gamma IC50 [umol]
T2 construct: PI3Kγ BV-950 p110g(D144aa)-C-Term His Tag; His tag (C); made in house; host or cells: construct from the Roger Williams lab (MRC LMB) in pVL1393; baculovirus; Tn5 (Trichoplusia ni) or TiniPro insect cells
T2 sequence (P48736 144-1102 limits assumed): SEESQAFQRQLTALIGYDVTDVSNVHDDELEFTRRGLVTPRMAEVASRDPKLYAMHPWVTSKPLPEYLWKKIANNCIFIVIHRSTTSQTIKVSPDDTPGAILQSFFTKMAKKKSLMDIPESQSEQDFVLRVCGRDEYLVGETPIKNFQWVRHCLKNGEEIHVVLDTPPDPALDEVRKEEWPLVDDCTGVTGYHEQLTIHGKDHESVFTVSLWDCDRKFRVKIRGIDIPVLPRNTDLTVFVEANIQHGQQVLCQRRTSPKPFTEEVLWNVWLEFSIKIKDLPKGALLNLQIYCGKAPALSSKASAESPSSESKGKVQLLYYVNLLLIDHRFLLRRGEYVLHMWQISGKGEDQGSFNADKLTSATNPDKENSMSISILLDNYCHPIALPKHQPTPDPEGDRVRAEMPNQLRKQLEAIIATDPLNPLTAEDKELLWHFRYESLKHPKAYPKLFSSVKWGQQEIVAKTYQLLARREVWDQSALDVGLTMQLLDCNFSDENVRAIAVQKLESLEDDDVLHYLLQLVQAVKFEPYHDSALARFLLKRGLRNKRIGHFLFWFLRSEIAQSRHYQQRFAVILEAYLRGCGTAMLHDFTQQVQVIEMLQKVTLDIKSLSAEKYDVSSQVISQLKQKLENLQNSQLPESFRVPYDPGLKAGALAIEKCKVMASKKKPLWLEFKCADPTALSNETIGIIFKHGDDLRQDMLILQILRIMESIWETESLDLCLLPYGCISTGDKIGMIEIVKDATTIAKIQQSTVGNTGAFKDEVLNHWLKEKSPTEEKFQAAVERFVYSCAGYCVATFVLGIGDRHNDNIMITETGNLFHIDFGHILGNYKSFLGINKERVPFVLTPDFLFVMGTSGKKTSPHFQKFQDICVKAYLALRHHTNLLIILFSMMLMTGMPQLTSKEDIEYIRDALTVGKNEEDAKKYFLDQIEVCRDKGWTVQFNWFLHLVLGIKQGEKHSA
Summary of the method: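 Kinase-Glo luminescence assay with 1 μM ATP and 10 μg/mL phosphatidylinositol (final), reaction started by ATP addition. IC50 from 4-parameter logistic fit of percent inhibition at 8 compound concentrations (usually 10 down to 0.003 […]).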

[3] = molecular target: T3, PI3K beta (Homo sapiens, UniProt P42338); experiment: PI3 kinase assay (Kinase-Glo luminescence), PI3K beta; conditions: Enzymatic Data; read-out: PI3K beta IC50 [umol]
T3 construct: for the full-length p110-b subunit are generated and fused by overlapping PCR; His tag (C); made in house; host or cells: baculovirus; Tn5 (Trichoplusia ni) or TiniPro insect cells
T3 sequence (P42338 with tags, fused parts or gaps limits assumed): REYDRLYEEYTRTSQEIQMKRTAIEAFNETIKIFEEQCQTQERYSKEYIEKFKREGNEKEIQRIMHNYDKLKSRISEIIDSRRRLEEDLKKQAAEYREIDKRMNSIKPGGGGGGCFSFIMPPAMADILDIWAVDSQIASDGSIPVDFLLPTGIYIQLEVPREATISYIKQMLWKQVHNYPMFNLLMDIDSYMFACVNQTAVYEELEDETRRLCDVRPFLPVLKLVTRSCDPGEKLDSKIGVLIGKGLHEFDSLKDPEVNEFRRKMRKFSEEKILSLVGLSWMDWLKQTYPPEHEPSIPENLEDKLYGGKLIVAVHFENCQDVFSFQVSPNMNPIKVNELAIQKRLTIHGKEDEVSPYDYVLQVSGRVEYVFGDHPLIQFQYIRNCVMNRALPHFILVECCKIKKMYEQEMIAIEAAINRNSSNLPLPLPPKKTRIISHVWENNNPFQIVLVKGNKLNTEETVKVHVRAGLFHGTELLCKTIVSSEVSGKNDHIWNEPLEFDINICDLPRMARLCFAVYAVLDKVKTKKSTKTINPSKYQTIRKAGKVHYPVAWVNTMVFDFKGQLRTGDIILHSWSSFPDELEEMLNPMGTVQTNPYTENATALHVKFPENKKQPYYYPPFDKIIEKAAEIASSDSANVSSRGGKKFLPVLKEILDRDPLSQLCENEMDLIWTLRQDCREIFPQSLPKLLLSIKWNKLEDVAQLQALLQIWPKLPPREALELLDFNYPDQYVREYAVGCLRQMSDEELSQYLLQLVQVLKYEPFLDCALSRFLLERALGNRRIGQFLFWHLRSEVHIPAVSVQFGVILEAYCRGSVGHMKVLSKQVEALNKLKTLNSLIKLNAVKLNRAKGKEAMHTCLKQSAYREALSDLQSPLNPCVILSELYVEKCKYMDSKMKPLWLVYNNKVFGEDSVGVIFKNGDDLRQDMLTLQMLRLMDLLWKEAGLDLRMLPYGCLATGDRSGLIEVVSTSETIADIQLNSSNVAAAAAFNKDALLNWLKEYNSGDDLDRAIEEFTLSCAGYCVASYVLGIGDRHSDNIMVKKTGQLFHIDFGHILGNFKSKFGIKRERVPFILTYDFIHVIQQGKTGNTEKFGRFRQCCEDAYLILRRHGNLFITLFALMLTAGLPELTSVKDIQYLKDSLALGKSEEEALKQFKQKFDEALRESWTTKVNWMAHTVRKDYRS
Summary of the method: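 PI3Kβ (25 nM, BV-949) with 10 μg/mL phosphatidylinositol in Tris pH 7.5/MgCl2/NaCl/CHAPS/DTT buffer; reaction started with 1 μM ATP, 60 min at room temperature. ATP depletion read by Kinase-Glo luminescence; 8-point dilutions, IC50 by four-parameter logistic fit.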

[4] = molecular target: T4, PI3K delta (Homo sapiens, UniProt O00329); experiment: PI3 kinase assay (Kinase-Glo luminescence), PI3K delta; conditions: Enzymatic Data; read-out: PI3K delta IC50 [umol]
T4 construct: for the full-length p110-d subunit are generated and fused by overlapping PCR; His tag (C); made in house; host or cells: baculovirus; Tn5 (Trichoplusia ni) or TiniPro insect cells
T4 sequence (O00329 with tags, fused parts or gaps limits assumed): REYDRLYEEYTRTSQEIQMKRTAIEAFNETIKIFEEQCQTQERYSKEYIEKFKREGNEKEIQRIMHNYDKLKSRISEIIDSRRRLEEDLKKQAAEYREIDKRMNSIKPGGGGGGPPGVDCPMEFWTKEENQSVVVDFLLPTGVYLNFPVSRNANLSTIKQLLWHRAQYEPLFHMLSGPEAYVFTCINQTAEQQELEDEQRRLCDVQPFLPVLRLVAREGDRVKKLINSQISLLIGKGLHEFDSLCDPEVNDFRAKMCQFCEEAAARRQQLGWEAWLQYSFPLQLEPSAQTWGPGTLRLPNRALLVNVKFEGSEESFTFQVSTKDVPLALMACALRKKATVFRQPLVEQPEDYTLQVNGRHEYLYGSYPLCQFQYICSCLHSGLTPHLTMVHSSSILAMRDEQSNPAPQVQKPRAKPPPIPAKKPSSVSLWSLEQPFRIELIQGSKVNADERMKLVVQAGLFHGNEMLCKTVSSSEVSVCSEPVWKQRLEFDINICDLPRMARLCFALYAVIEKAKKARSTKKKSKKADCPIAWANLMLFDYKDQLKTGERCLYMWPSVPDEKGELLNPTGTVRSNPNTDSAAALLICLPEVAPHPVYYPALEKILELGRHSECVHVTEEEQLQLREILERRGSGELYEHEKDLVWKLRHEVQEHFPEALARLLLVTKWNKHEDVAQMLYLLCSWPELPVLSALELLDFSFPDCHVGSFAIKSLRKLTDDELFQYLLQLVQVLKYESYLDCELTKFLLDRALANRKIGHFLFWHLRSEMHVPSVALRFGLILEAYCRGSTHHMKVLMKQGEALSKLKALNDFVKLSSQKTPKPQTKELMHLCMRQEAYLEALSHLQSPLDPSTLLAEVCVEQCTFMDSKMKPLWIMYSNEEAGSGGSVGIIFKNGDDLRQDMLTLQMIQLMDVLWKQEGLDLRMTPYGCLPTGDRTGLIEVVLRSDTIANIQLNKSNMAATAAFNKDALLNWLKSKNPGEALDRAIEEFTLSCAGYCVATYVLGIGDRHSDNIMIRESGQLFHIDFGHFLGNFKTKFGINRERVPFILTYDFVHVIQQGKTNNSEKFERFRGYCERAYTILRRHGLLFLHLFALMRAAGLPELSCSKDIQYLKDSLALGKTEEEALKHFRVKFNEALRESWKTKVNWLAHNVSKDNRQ
Summary of the method: as §1

Row | Compound | IC50 [1] | IC50 [2] | IC50 [3] | IC50 [4]
1 | Nc1ncc(-c2cnc3ccc(-c4ccc(OCCCN5CCCC5=O)c(F)c4)nn23)cc1C(F)(F)F [Example 90, 1-(3-{4-[3-(6-Amino-5-trifluoro-methyl-pyridin-3-yl)-imidazo [1,2-b]pyridazin-6-yl]-2-fluoro-phenoxy}-propyl)-pyrrolidin-2-one] | 1140 nM | 4690 nM | > 9100 nM | 1110 nM
2 | Nc1ncc(-c2ccc3ncc(-c4ccc(C(=O)NCCN5CCOCC5)c(F)c4)n3n2)cc1C(F)(F)F [Example 99, 4-[6-(6-Amino-5-trifluoro-methyl-pyridin-3-yl)-imidazo [1,2-b]pyridazin-3-yl]-2-fluoro-N-(2-morpholin-4-yl-ethyl)-benzamide] | 9 nM | 584 nM | 82 nM | 15 nM
3 | Nc1ncc(-c2cnc3ccc(-c4ccc(OCCNC(=O)C5CC5)cc4)nn23)cc1C(F)(F)F [Example 157, Cyclo-propane-carboxylic acid (2-{4-[3-(6-amino-5-trifluoro-methyl-pyridin-3-yl)-imidazo [1,2-b]pyridazin-6-yl]-phenoxy}-ethyl)-amide] | 21 nM | 2040 nM | 842 nM | 202 nM
4 | CC(C)(C)OC(=O)N1CCC(Oc2ccc(-c3ccc4ncc(-c5cnc(N)c(C(F)(F)F)c5)n4n3)cc2)CC1 [Example 162, 4-{4-[3-(6-Amino-5-trifluoro-methyl-pyridin-3-yl)-imidazo [1,2-b]pyridazin-6-yl]-phenoxy}-piperidine-1-carboxylic acid tert-butyl ester] | 379 nM | > 9100 nM | > 9100 nM | > 9100 nM
5 | NCCCOc1ccc(-c2ccc3ncc(-c4cnc(N)c(C(F)(F)F)c4)n3n2)cc1 [Example 56, 5-{6-[4-(3-Amino-propoxy)-phenyl]-imidazo [1,2-b]pyridazin-3-yl}-3-trifluoro-methyl-pyridin-2-ylamine] | 203 nM | 56 nM | 183 nM | 167 nM
6 | COc1cc(-c2ccc3ncc(-c4cnc(N)c(C(F)(F)F)c4)n3n2)ccc1OCCNC(C)=O [Example 62, N-(2-{4-[3-(6-Amino-5-trifluoro-methyl-pyridin-3-yl)-imidazo[1,2-b]pyridazin-6-yl]-2-methoxy-phenoxy}-ethyl)-acetamide] | 28 nM | 1360 nM | 156 nM | 138 nM
7 | COc1cc(-c2cnc3ccc(-c4cnc(N)c(C(F)(F)F)c4)nn23)ccc1C(=O)NCCCN1CCOCC1 [Example 125, 4-[6-(6-Amino-5-trifluoro-methyl-pyridin-3-yl)-imidazo [1,2-b]pyridazin-3-yl]-2-methoxy-N-(3-morpholin-4-yl-propyl)-benzamide] | 26 nM | 490 nM | 182 nM | 55 nM
8 | Nc1ncc(-c2ccc3ncc(-c4ccc(S(=O)(=O)NCCN5CCOCC5)cc4)n3n2)cc1C(F)(F)F [Example 124, 4-[6-(6-Amino-5-trifluoro-methyl-pyridin-3-yl)-imidazo [1,2-b]pyridazin-3-yl]-N-(2-morpholin-4-yl-ethyl)-benzene-sulfonamide] | 18 nM | 529 nM | 157 nM | 29 nM
9 | COc1ccc(-c2ccc3ncc(-c4cnc5[nH]ccc5c4)n3n2)cc1F [Example 49, 6-(3-Fluoro-4-methoxy-phenyl)-3-(1H-pyrrolo [2,3-b]pyridin-5-yl)-imidazo [1,2-b] pyridazine] | 1620 nM | 6040 nM | > 9100 nM | 4810 nM
10 | Nc1ncc(-c2ccc3ncc(-c4cnc5c(c4)ncn5CCN4CCOCC4)n3n2)cc1C(F)(F)F [Example 143, 5-{3-[3-(2-Morpholin-4-yl-ethyl)-3H-imidazo [4,5-b]pyridin-6-yl]-imidazo [1,2-b]pyridazin-6-yl}-3-trifluoro-methyl-pyridin-2-ylamine] | 44 nM | 1180 nM | 72 nM | 28 nM
11 | CN(C)C(=O)c1ccc(CNC(=O)c2ccc(-c3cnc4ccc(-c5cnc(N)c(C(F)(F)F)c5)nn34)cc2)cc1 [Example 83, N-(4-N-dimethylacetyl-benzyl)-4-[6-(6-amino-5-trifluoro-methyl-pyridin-3-yl)-imidazo [1,2-b]pyridazin-3-yl]-benzamide] | 27 nM | 558 nM | 166 nM | 23 nM
12 | COc1cc(-c2cnc3ccc(-c4cnc(N)c(C(F)(F)F)c4)nn23)ccc1C(=O)O [Example 109, 4-[6-(6-Amino-5-trifluoromethyl-pyridin-3-yl)-imidazo [1,2-b]pyridazin-3-yl]-2-methoxy-benzoic acid] | 6 nM | 405 nM | 62 nM | 10 nM
13 | Nc1ncc(-c2ccc3ncc(-c4ccc(C(=O)N5CCN(Cc6ccncc6)CC5)cc4)n3n2)cc1C(F)(F)F [Example 136, {4-[6-(6-Amino-5-trifluoro-methyl-pyridin-3-yl)-imidazo [1,2-b]pyridazin-3-yl]-phenyl}-(4-pyridin-4-ylmethyl-piperazin-1-yl)-methanone] | 36 nM | 1530 nM | 1200 nM | 52 nM
14 | COc1ccc(-c2ccc3ncc(-c4cnc5[nH]ccc5c4)n3n2)cc1 [Example 47, 6-(4-Methoxy-phenyl)-3-(1H-pyrrolo [2,3-b]pyridin-5-yl)-imidazo [1,2-b] pyridazine] | 2720 nM | > 9100 nM | > 9100 nM | 3840 nM
15 | O=C(NCCCOc1ccc(-c2ccc3ncc(-c4cnc5[nH]ccc5c4)n3n2)cc1)C1CC1 [Example 137, Cyclo-propane-carboxylic acid (3-{4-[3-(1H-pyrrolo[2,3-b]pyridin-5-yl)-imidazo [1,2-b]pyridazin-6-yl]-phenoxy}-propyl)-amide] | 138 nM | > 9100 nM | > 9100 nM | 280 nM
16 | COc1cc(-c2cnc3ccc(-c4cnc(N)c(C(F)(F)F)c4)nn23)c(F)cc1C(=O)NCCN1CCS(=O)(=O)CC1 [Example 160, 4-[6-(6-Amino-5-trifluoro-methyl-pyridin-3-yl)-imidazo [1,2-b]pyridazin-3-yl]-N-[2-(1,1-dioxo-1lambda*6*- thio-morpholin-4-yl)-ethyl]-5-fluoro-2-methoxy-benzamide] | 22 nM | 1260 nM | 144 nM | 39 nM
17 | Nc1ncc(-c2ccc3ncc(-c4ccc(C(=O)N5CCN(CCN6CCOCC6)CC5)cc4)n3n2)cc1C(F)(F)F [Example 128, {4-[6-(6-Amino-5-trifluoro-methyl-pyridin-3-yl)-imidazo [1,2-b]pyridazin-3-yl]-phenyl}-[4-(2-morpholin-4-yl-ethyl)-piperazin-1-yl]-methanone] | 12 nM | 938 nM | 518 nM | 38 nM
18 | COc1cc(-c2ccc3ncc(-c4cnc(N)c(C(F)(F)F)c4)n3n2)ccc1OCCN1CCCC1=O [Example 103, 1-(2-{4-[3-(6-Amino-5-trifluoro-methyl-pyridin-3-yl)-imidazo [1,2-b]pyridazin-6-yl]-2-methoxy-phenoxy}-ethyl)-pyrrolidin-2-one] | 4 nM | 573 nM | 134 nM | 11 nM
19 | Nc1ncc(-c2ccc3ncc(-c4ccc(C(=O)NCCN5CCS(=O)(=O)CC5)cc4F)n3n2)cc1C(F)(F)F [Example 153, 4-[6-(6-Amino-5-trifluoro-methyl-pyridin-3-yl)-imidazo [1,2-b]pyridazin-3-yl]-N-[2-(1,1-dioxo-1lambda*6*- thio-morpholin-4-yl)-ethyl]-3-fluoro-benzamide] | 8 nM | 1260 nM | 271 nM | 13 nM
20 | c1cc2cc(-c3cnc4ccc(-c5ccc6c(c5)OCO6)nn34)cnc2[nH]1 [Example 178, 6-Benzo [1,3] dioxol-5-yl-3-(1H-pyrrolo [2,3-b]pyridin-5-yl)-imidazo [1,2-b] pyridazine] | 793 nM | > 9100 nM | 6190 nM | 495 nM
21 | COc1cc(-c2cnc3ccc(-c4cnc(N)c(C(F)(F)F)c4)nn23)ccc1OCCCNC(=O)OC(C)(C)C [Example 36, (3-{4-[6-(6-Amino-5-trifluoro-methyl-pyridin-3-yl)-imidazo [1,2-b]pyridazin-3-yl]-2-methoxy-phenoxy}-propyl)-carbamic acid tert-butyl ester] | 255 nM | 4830 nM | 2160 nM | 328 nM
22 | Nc1ncc(-c2ccc3ncc(-c4ccc(C(=O)N5CCN(CCO)CC5)cc4)n3n2)cc1C(F)(F)F [Example 145] | 97 nM | 6920 nM | 508 nM | 151 nM
